One assay relates to Vero. The assay can be described thus: Cytotoxicity against african green monkey Vero cells by cell Titer_Glo assay. It counts as cell-based. The settings on record: Chlorocebus sabaeus.
Another assay relates to Escherichia coli. The assay is described as follows: Antibacterial activity against Escherichia coli by broth microdilution method. The class given is functional. Background: In broth dilution the organism is exposed to a series of concentrations in liquid medium.
In a further assay the test system is Candida albicans. The assay can be described thus: Antifungal activity against Candida albicans by broth microdilution method. It counts as functional.
Assay [1] has as its system Mycobacterium tuberculosis. The assay can be described thus: Antitubercular activity against Mycobacterium tuberculosis H37Rv after 7 days by microplate alamar blue assay. It counts as functional. The conditions noted are these: 168 h.
Another assay concerns Staphylococcus aureus. The assay is described as follows: Antibacterial activity against Staphylococcus aureus by broth microdilution method. It counts as functional.
In the next assay the test system is Bacillus anthracis. The assay is described as follows: Antibacterial activity against Bacillus anthracis after 18 hrs by broth microdilution method. The class given is functional.

Here are results for 1 molecule from ChEMBL document CHEMBL1153715, “An antimicrobial guanidine-bearing sesterterpene from the cultured cyanobacterium Scytonema sp” (J Nat Prod, 2009).

≈ marks a conversion by molar mass, not a printed value.

Usually IC50 stands for the concentration that inhibits the measured activity by half. What is called MIC is the lowest concentration that inhibits growth of the organism.

For the molecule `C=C1CC[C@@H]2[C@](C)(CC[C@H]3[C@@]2(C)CC[C@H]2C(C)(C)CC[C@@H](O)[C@@]23C)[C@H]1CNC(=N)N` [SCYTOSCALAROL], half-maximal inhibition in the assay on Vero (IC50) required 135 µM. Moreover, the MIC in the assay on Escherichia coli came to 30 µM (≈ 12.5 µg/mL); in the assay with Candida albicans, 4 µM (≈ 1.66 µg/mL); in assay [1], 110 µM (≈ 45.7 µg/mL); against Staphylococcus aureus it was 2 µM (≈ 0.831 µg/mL); with Bacillus anthracis, 6 µM (≈ 2.49 µg/mL).
